Results: US9970938B2, “Use of BUBR1 as a biomarker of drug response to furazanobenzimidazoles” (Basilea Pharmaceutica AG, priority 2011, dated 2018)

How the values were obtained:
Assay type in all cases: cell-based, human
A549 NSCLC cells = assay: Immunofluorescent staining of microtubules in cultured cells; conditions: for microtubule phenotype of mitotic or G2/M arrested cells: 24 hours treatment, anti-alpha-tubulin staining; for microtubule phenotype, agent added for the last 4 hours of 24 hours BAL27862 treatment: combination
Method: A549 human non-small cell lung cancer (NSCLC, ATCC reference number CCL-185) cells, HeLa cervical cancer cells (ATCC reference number CCL-2) and SKBR3 breast carcinoma cells (ATCC reference number HTB-30) were seeded at densities of 50% on round microscope coverslips and cultured for 24 hours in RPMI-1640 containing 10% FCS (also referred to as FBS) at 37° C., 5% CO2. Compounds to be tested were dissolved in DMSO. The cell culture medium was replaced with medium containing the diluted compound(s) (paclitaxel, vinblastine, colchicine and nocodazole were purchased from Sigma-Aldrich) or vehicle. After treatment, coverslips were washed and cells were fixed in methanol/acetone (1:1) for 5 minutes at room temperature and subsequently incubated in blocking buffer (0.5% BSA and 0.1% TX-100 in PBS) for 30 minutes at room temperature. Specimens were then incubated with anti-alpha-tubulin antibody (Sigma, 1:2000) for 1 hour at room temperature in blocking buffer. After several washing steps cells were incubated with AlexaFluor-488 goat-anti-mouse IgG (Molecular Probes, 1:3000) for 1 hour at room temperature followed by several washing steps with blocking buffer. Specimens were then mounted with ProLong Gold antifade (Molecular Probes), sealed with nail polish and examined with a Leica immunofluorescence microscope. Images were captured with a cooled CCD-camera and processed by ImageJ software.

GXF251 = assay: Colony outgrowth assay, patient-derived tumour xenograft cells; set-up: key: S: BAL27862-sensitive tumour cells have IC70 values in the low nanomolar range; R: BAL27862-resistant tumour cells are defined by IC70 values >600 nanomolar; conditions: Gastric
Method: (§1) Single cell suspensions of patient-derived tumour xenografts (maintained in nude mice) were prepared. For colony outgrowth assays, cells were plated in soft agar in 24-well plates according to the assay introduced by Hamburger & Salmon (Primary bioassay of human tumour stem cells, Science, 1977, 197:461-463). 2.0E+04-6.0E+04 cells in 0.2 mL medium containing 0.4% agar were plated out on a bottom layer of 0.75% agar. Test compounds were applied in 0.2 mL culture medium. Every 24-well plate contained untreated controls and samples in triplicates. Cultures were incubated at 37° C. and 7.5% CO2 for 5-28 days. 24 hours prior to analysis, vital colonies were stained with a solution of metabolizable tetrazolium salt (Alley M C et al, Life Sci. 1982, 31:3071-3078) and were counted with an automatic image analysis system (Omnicon 3600, Biosys GmbH).
(§2) Relative drug effects were expressed by the ratio of the mean number of colonies in the treated wells and the control wells. IC70-values were determined by plotting compound concentrations versus relative colony counts.

GXF97 = assay: as above; set-up: key: S: BAL27862-sensitive tumour cells have IC70 values in the low nanomolar range; R: BAL27862-resistant tumour cells are defined by IC70 values >600 nanomolar; conditions: Gastric
Method: as §1, §2

LXFA629 = assay: as above; set-up: key: S: BAL27862-sensitive tumour cells have IC70 values in the low nanomolar range; R: BAL27862-resistant tumour cells are defined by IC70 values >600 nanomolar; conditions: Lung
Method: as §1, §2

LXFL529 = assay: as above; set-up: key: S: BAL27862-sensitive tumour cells have IC70 values in the low nanomolar range; R: BAL27862-resistant tumour cells are defined by IC70 values >600 nanomolar; conditions: Lung
Method: as §1, §2

[1] = tested on: tumour cells derived from patient-derived tumours from gastric and lung cancer; assay: Colony outgrowth assay, all tumour models
Method: as §1, with “GmbH). Relative drug effects were expressed by the ratio of the mean number of colonies in the treated wells and the control wells. IC70-values were determined by plotting compound concentrations versus relative colony counts.” for “GmbH).”

BAL27862-resistant cells = assay: Crystal Violet assay of BAL27862-resistant cell lines, all lines
Description: (§3) BAL27862-resistant sublines of human non-small cell lung cancer (H460 ATCC reference HTB-177; A549 ATCC reference CCL-185), ovarian cancer (SKOV3 ATCC reference HTB-77) lines were generated by long-term selection in complete cell culture medium (RPMI-1640 containing 10% FCS; Sigma-Aldrich) by stepwise increasing concentrations of BAL27862. […] The resistant sublines were expanded at the highest tolerated BAL27862 concentration and subsequently frozen and stored in liquid nitrogen.
(§4) After medium was removed, cells were fixed and stained by adding 50 μl Crystal Violet Staining (0.2% Crystal Violet in 50% Methanol) per well. Plates were incubated for 1 hour at room temperature. Subsequently the stain was decanted and plates were washed 4 times with double-distilled water. Plates were air-dried for several hours. Stain was dissolved by adding 100 μl buffer (0.1 M Tris pH 7.5, 0.2% SDS, 20% Ethanol) per well and shaking the plates. Absorbance at 590 nm was measured using a SpectraMax M2e plate reader (Molecular Devices). Anti-proliferative IC50 values were calculated from concentration response curves using GraphPad Prism software. Resistance factors were calculated as a ratio of BAL27862 IC50 in the resistant line variant versus the IC50 in the parental line.

A549 = assay: Crystal Violet assay of BAL27862-resistant cell line versus parental line; conditions: 72 hours incubation, Crystal Violet
Description: as §3, §4

H460 = assay: as above; conditions: 72 hours incubation, Crystal Violet
Description: as §3, §4

SKOV3 resistant 1 = assay: as above; conditions: 72 hours incubation, Crystal Violet
Description: as §3, §4

SKOV3 resistant 2 = assay: as above; conditions: 72 hours incubation, Crystal Violet
Description: as §3, §4

## Nc1ccc(C(=O)Cn2c(-c3nonc3N)nc3ccccc32)cc1 [Compound B, 2-[2-(4-Amino-furazan-3-yl)-benzoimidazol-1-yl]-1-(4-amino-phenyl)-ethanone]
A549 NSCLC cells
  microtubule phenotype of mitotic or G2/M arrested cells: highly reproducible and distinct microtubule phenotype

## N#CCCNc1nonc1-c1nc2ccccc2n1CC(=O)c1ccc(N)nc1 [Compound C, 3-(4-{1-[2-(6-Amino-pyridin-3-yl)-2-oxo-ethyl]-1H-benzoimidazol-2-yl}-furazan-3-ylamino)-propionitrile]
A549 NSCLC cells
  microtubule phenotype of mitotic or G2/M arrested cells: highly reproducible and distinct microtubule phenotype

## COC(=O)Nc1nc2ccc(C(=O)c3cccs3)cc2[nH]1 [Nocodazole, nocodazole]
A549 NSCLC cells
  microtubule phenotype of mitotic or G2/M arrested cells: mitotic microtubule phenotypes characteristic of these agents
  microtubule phenotype, agent added for the last 4 hours of 24 hours BAL27862 treatment: no impact on the observed microtubule phenotype

## CC[C@]1(O)C[C@@H]2CN(CCc3c([nH]c4ccccc34)[C@@](C(=O)OC)(c3cc4c(cc3OC)N(C)[C@H]3[C@@](O)(C(=O)OC)[C@H](OC(C)=O)[C@]5(CC)C=CCN6CC[C@]43[C@@H]65)C2)C1 [Vinblastine, vinblastine]
GXF251
  Sensitive (S)/Resistant (R), by IC70 in colony outgrowth: S
GXF97
  Sensitive (S)/Resistant (R), by IC70 in colony outgrowth: S
LXFA629
  Sensitive (S)/Resistant (R), by IC70 in colony outgrowth: S
LXFL529
  Sensitive (S)/Resistant (R), by IC70 in colony outgrowth: S
[1]
  resistance or sensitivity to treatment, same ex vivo assay: sensitive
A549 NSCLC cells
  microtubule phenotype of mitotic or G2/M arrested cells: mitotic microtubule phenotypes characteristic of these agents
  microtubule phenotype, agent added for the last 4 hours of 24 hours BAL27862 treatment: no impact on the observed microtubule phenotype

## CC(=O)O[C@H]1C(=O)[C@@]2(C)[C@H]([C@H](OC(=O)c3ccccc3)[C@]3(O)C[C@H](OC(=O)[C@H](O)[C@@H](NC(=O)c4ccccc4)c4ccccc4)C(C)=C1C3(C)C)[C@]1(OC(C)=O)CO[C@@H]1C[C@@H]2O [Paclitaxel, paclitaxel]
GXF251
  Sensitive (S)/Resistant (R), by IC70 in colony outgrowth: R (BAL27862-resistant tumour cells are defined by IC70 values >600 nanomolar)
GXF97
  Sensitive (S)/Resistant (R), by IC70 in colony outgrowth: R (BAL27862-resistant tumour cells are defined by IC70 values >600 nanomolar)
LXFA629
  Sensitive (S)/Resistant (R), by IC70 in colony outgrowth: R (BAL27862-resistant tumour cells are defined by IC70 values >600 nanomolar)
LXFL529
  Sensitive (S)/Resistant (R), by IC70 in colony outgrowth: R (BAL27862-resistant tumour cells are defined by IC70 values >600 nanomolar)
[1]
  resistance or sensitivity to treatment, same ex vivo assay: resistant
A549 NSCLC cells
  microtubule phenotype of mitotic or G2/M arrested cells: mitotic microtubule phenotypes characteristic of these agents
  microtubule phenotype, agent added for the last 4 hours of 24 hours BAL27862 treatment: no impact on the observed microtubule phenotype
BAL27862-resistant cells
  response of BAL27862-resistant cells versus parental: increased sensitivity

## COc1cc2c(c(OC)c1OC)-c1ccc(OC)c(=O)cc1[C@@H](NC(C)=O)CC2 [Colchicine, colchicine]
A549
  Resistance factors (ratio of IC50 BAL27862-resistant cell line variant and IC50 parental cell line): 0.9
H460
  Resistance factors (ratio of IC50 BAL27862-resistant cell line variant and IC50 parental cell line): 1.6
SKOV3 resistant 1
  Resistance factors (ratio of IC50 BAL27862-resistant cell line variant and IC50 parental cell line): 2.0
SKOV3 resistant 2
  Resistance factors (ratio of IC50 BAL27862-resistant cell line variant and IC50 parental cell line): 2.8
A549 NSCLC cells
  microtubule phenotype of mitotic or G2/M arrested cells: mitotic microtubule phenotypes characteristic of these agents
  microtubule phenotype, agent added for the last 4 hours of 24 hours BAL27862 treatment: no impact on the observed microtubule phenotype
